RP-LC retention time data for 80 molecules are collected here from the METLIN SMRT retention time set (Domingo-Almenara et al. 2019).

This series is described as follows: gradient 5% acetonitrile 3 min, to 50% in 2 min, to 85% in 15 min, held 3 min, 100 µL/min. The conditions noted are these: column: Zorbax Extend-C18 2.1 x 50 mm; eluents: water / acetonitrile, 0.1% formic acid. In a few lines: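 Over 3 months, pure standards in mixtures of ~100 molecules were run by HPLC coupled to a quadrupole time-of-flight mass spectrometer in positive and negative ionization mode. The column was a Zorbax Extend-C18 (2.1 × 50 mm, 1.8 μm) at 100 μL/min, eluted with water and acetonitrile each holding 0.1% formic acid, with 40 μL dead and 900 μL dwell volumes. Retention time was determined from adduct peaks chosen by software and checked manually.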
`CCOc1ccc(CC(=O)N2CCN(S(=O)(=O)c3cc4c5c(c3)CCC(=O)N5CCC4)CC2)cc1` displayed an RP-LC retention time of 823 s.
With `CC(C)c1nnc(-c2ccc(S(=O)(=O)NC3CCCCC3)o2)o1` the figure was 904 s; with `Cc1sc2ccn(Cc3ccc(F)cc3)c(=O)c2c1C(=O)N1CCCC1`, 764 s.
Under `Cc1cccc(NC(=O)N2CC(Cc3nncn3C(C)C)C2)c1C` stands 627 s; under `Cc1nc2cc(N3CCC(C(=O)O)CC3)cnc2nc1C`, 611 s; under `O=C(NCc1cccc(F)c1)C1CCCN(c2cnc3nccnc3c2)C1` (stereo not given), 702 s.
Under `CCOc1ccccc1CNC(=O)Cn1c(CC)nc2onc(C)c2c1=O` stands 865 s; under `Cc1noc(C2CCCCN2Cc2nc(-c3cccnc3)no2)n1` (stereo not given), 656 s; under `CC(=O)NCc1nc(-c2ccc3c(c2)nc(C)c(=O)n3C2CCCC2)no1`, 707 s.
In the case of `Cc1nc2c(C(=O)NCCN3CCOCC3)cnn2c(C)c1Cc1ccccc1Cl`, the RP-LC retention time was found to be 678 s.
With `CCn1cnc(S(=O)(=O)N2CCC(C(=O)Nc3ccc(C)cc3C)CC2)c1` the figure was 741 s.
Under `CCc1ccc2[nH]c3c(c(=O)c2c1)CN(CC(=O)NC1CCCCC1)CC3` stands 630 s; under `Cc1ccc(-c2cn3c(CC(=O)Nc4ccc(F)cc4C)csc3n2)cc1C`, 862 s.
`Cc1cc(N2CCN(C(=O)Nc3cccc(C(F)(F)F)c3)CC2)nc(N2CCOCC2)n1` came in with an RP-LC retention time of 675 s.
With `COC(=O)c1ccc(Nc2nc(C)nc3c2CCC3)cc1` the figure was 615 s.
Under `O=C(c1ccsc1)N1CCC(c2nncn2-c2ccccc2)CC1` stands 630 s; under `CCn1nccc1C(=O)N1CCCC1c1ccc(C)cc1` (stereo not given), 890 s.
Under `CSc1ccc(CNC(=O)Cn2c(=O)cc(-c3nc(C)no3)c3ccccc32)cc1` stands 859 s; under `O=C(c1cn(-c2cc(N3CCSCC3)ncn2)cn1)N1CCCc2ccccc21`, 780 s.
In the case of `CCS(=O)(=O)N1CC(=O)N(c2cc(C)cc(C)c2)C(C)(C(=O)NCc2ccccc2)C1` (stereo not given), the RP-LC retention time was 868 s.
Under `COc1ccc(NC(=O)c2sc(-c3cn(C(C)C)c4ncccc34)nc2C)c(OC)c1` stands 1030 s; under `CCN1CCCC1CNC(=O)C1c2ccccc2C(=O)N(CCOC)C1c1ccc(F)cc1` (stereo not given), 640 s; under `CCOC(=O)CCC(=O)Nc1ncc(C#N)s1`, 667 s.
With `O=C(CSc1nnc2ccc3ccccc3n12)c1ccc(Cl)cc1` the figure was 875 s; with `CC(C)(C)C(=O)N1CCC(C(=O)N[C@@H]2CCCC[C@H]2NC(=O)c2ccc(F)cc2)CC1`, 698 s.
`COc1cccc(-c2noc(Cn3nc(-c4ccc5c(c4)OCO5)ccc3=O)n2)c1` had an RP-LC retention time of 957 s.
Under `Cc1ccc(CN2C(=O)CN(S(C)(=O)=O)CC2(C)C(=O)NCc2ccc(F)cc2)cc1` (stereo not given) stands 836 s.
Under `CCN1C(=O)C(CC(=O)NCc2ccncc2)Sc2ncccc21` (stereo not given) stands 558 s.
With `Cc1ccc(NC(=O)N2CCC(n3cnc4ccc(Cl)cc4c3=O)CC2)cc1C` the figure was 913 s; with `COc1ccc(OC)c(NC(=O)C2CCCN(S(=O)(=O)c3cc(-c4noc(C)n4)cs3)C2)c1` (stereo not given), 966 s; with `Cn1ncc(N2CCCC(CC(=O)N3CCC4(CC3)OCCO4)C2)cc1=O` (stereo not given), 625 s.
In turn, `CC(C)n1c(N2CCN(C(=O)CCc3nc4ccccc4[nH]3)CC2)cc(=O)n(C(C)C)c1=O` registered an RP-LC retention time of 648 s.
Under `Cc1ccc(Nc2c(-c3ccc(C(=O)O)cc3)nc3cnccn23)cc1` stands 766 s; under `COC(=O)c1c(NC(=O)c2cnn(-c3ccccc3)c2C)sc2c1CCN(C(C)=O)C2`, 812 s; under `O=C1NCCc2c(OCC(=O)N3N=C(c4cccs4)CC3c3ccc(F)cc3)cccc21` (stereo not given), 787 s.
As to `Cc1ccc(-c2nc(Cn3nnc(C(=O)NCc4ccc(C)o4)c3C)c(C)o2)cc1`, the RP-LC retention time came to 1010 s.
With `O=C(Nc1ccccc1)C12CC1/C(=N\O)c1ccccc1O2` (stereo not given) the figure was 825 s; with `O=C(CN1CCC(c2nc(-c3ccc(F)cc3)no2)CC1)NCc1ccc2c(c1)OCO2`, 720 s.
On to `CCc1nc(-c2csc(S(=O)(=O)N3CCC(C(=O)Nc4ccc(C)cc4Cl)CC3)c2)no1`, for which the RP-LC retention time came to 1080 s.
`Cc1ccc(N2CC(c3noc(-c4ccc(C)nc4)n3)CC2=O)cc1` (stereo not given) gave an RP-LC retention time of 799 s.
`Cc1cc(C)cc(NC(=O)N2CCC(n3cnc4ccccc4c3=O)CC2)c1` gave an RP-LC retention time of 809 s.
Under `O=C(CCC(=O)N1CCN(C(c2ccccc2)c2ccccc2)CC1)Nc1noc2ccccc12` stands 718 s; under `Cn1c(CCC(=O)NCc2ccc(C(F)(F)F)cc2)nc2ccccc2c1=O`, 825 s.
`O=C(NC1CC(=O)N(C2CC2)C1)c1cnc2ccccc2n1` (stereo not given) showed an RP-LC retention time of 594 s.
Under `O=C(O)c1nnn(-c2ccc3c(c2)CCC3)c1-c1ccncc1` stands 662 s.
With `CCOc1ccccc1C1CC(=O)Nc2c(S(=O)(=O)c3ccccc3)csc21` (stereo not given) the figure was 1010 s; with `CCN1C(=O)COc2ccc(-c3noc(-c4ccccc4C(F)(F)F)n3)cc21`, 1140 s; with `COc1cc(/C=C2\CCOC2=O)cc(OC)c1OC`, 802 s.
Under `CCCN1C(=O)COc2ccc(-c3noc(C4CC(=O)N(c5ccccc5)C4)n3)cc21` (stereo not given) stands 948 s.
Take `Cc1cc(-c2nnc(C3CC3)o2)c(C)n1CC(=O)NC(C)c1ccccc1` (stereo not given): the RP-LC retention time came to 790 s.
Under `COC(=O)c1ccc(NC(=O)CN2CCc3[nH]c4c(F)c(Cl)ccc4c(=O)c3C2)cc1` stands 630 s.
With `O=C(CCC(=O)N1CCOc2ccccc21)Nc1c(F)c(F)c(F)c(F)c1F` the figure was 912 s.
With `O=C(NCCc1csc(C2CCN(C(=O)C3CCCO3)CC2)n1)C1CC1` (stereo not given) the figure was 603 s; with `Cc1ccc(NC(=O)C2CCN(S(=O)(=O)c3cc(C(=O)N4CCCC4)n(C)c3)CC2)cc1Cl`, 875 s.
Turning to `Nc1cc(-c2cccc(F)c2)[nH]n1`, the RP-LC retention time is 608 s.
With `CCN(CC)Cc1cc2[nH]c3c4ccc(Cl)cc4ncc3c2cc1OC` the figure was 747 s; with `Cc1noc(-c2cccn2C)n1`, 744 s; with `Cc1ccc(NC(=O)NCCn2c(C(F)(F)F)nc3cccnc32)cc1F`, 786 s.
With `O=C(NC1CCCCCC1)C1CCCN(c2nc3ccccc3n(Cc3ccccc3)c2=O)C1` (stereo not given) the figure was 1290 s; with `Cc1nn(-c2ccc(N3CCCCC3)nn2)c(C)c1CCC(=O)NCCCc1ccco1`, 665 s.
`O=c1ccn(-c2ccc(Cl)cc2)nc1-c1nc(-c2ccc(Cl)cc2)no1` registered an RP-LC retention time of 1040 s.
Under `CN(CCc1ccc(Cl)c(Cl)c1)CC(O)COc1ccc(NS(C)(=O)=O)cc1` (stereo not given) stands 715 s.
With `CCc1ccc(CNC(=O)Cn2cnc3nc4c(cc3c2=O)CCCC4)cc1` the figure was 765 s; with `O=C(Cn1ccc2cc(S(=O)(=O)N3CCCCCC3)ccc21)N1CCN(c2ccccn2)CC1`, 707 s.
Consider `COCCC1CCN(C(=O)c2nn(C)c3ccccc23)CC1`, for which the RP-LC retention time amounted to 771 s.
`COC(=O)c1cc(C)nc2c1c(=O)n(Cc1cccc(C)c1)c(=O)n2Cc1ccco1` had an RP-LC retention time of 1170 s.
With `Cc1ccc(F)cc1NS(=O)(=O)c1cc2c(s1)CCN(C(=O)C1CCC1)C2` the figure was 877 s; with `Cc1nn(CCCC(=O)NCCCN2CCCCC2)c(=O)c2c1sc1ccccc12`, 645 s; with `CCS(=O)(=O)c1nc2ccc(NS(=O)(=O)CCc3ccccc3)cc2s1`, 918 s.
For `O=C1COc2c1ccc(O)c2O`, the RP-LC retention time was determined as 623 s.
Turning to `CC(C)c1ccc(-n2nc(N3CCN(C(=O)C4CC4)CC3)ccc2=O)cc1`, the RP-LC retention time amounted to 810 s.
With `CCc1ccc2[nH]c3c(c(=O)c2c1)CN(CC(=O)Nc1ccc(OC)c(Cl)c1)CC3` the figure was 636 s; with `c1cc(-c2noc(C3CC3)n2)cc(N2CCOCC2)n1`, 695 s; with `Cc1cnc(C2CC2)n1C1CCN(Cc2ccc(F)cc2F)C1` (stereo not given), 559 s.
`O=C([C@@H]1C[C@H](F)CN1C(=O)Nc1cccc(C(F)(F)F)c1)N1CCCCC1` came in with an RP-LC retention time of 804 s.
With `COCCN1C(=O)c2cccn2CC1CNS(=O)(=O)c1c(C)noc1C` (stereo not given) the figure was 689 s.
With `O=C(CN1CCN(C(=O)CCc2ccccc2)CC1)c1cccs1` the figure was 550 s; with `CN1C(=O)c2cc(S(=O)(=O)NCc3ccc(F)cc3)ccc2Oc2cccnc21`, 951 s.
Under `O=C(Nc1ccc2ncsc2c1)c1sc2ccccc2c1Cl` stands 997 s; under `Cc1cccc(NC(=O)Nc2cnn(-c3ncncc3N3CCOCC3)c2)c1C`, 612 s.
